This is an account of results in patent publication US8722629B2, “Auristatin derivatives and use thereof” (Seattle Genetics, Inc., priority 2010, dated 2014).

For experiment [1], the system named is human colon carcinoma cell line HT29 wt (wild type). Nature of the experiment: Antiproliferative effect on the HT29 wt cell line (MTT assay). It is filed as cell-based. The note with it: 10% FCS, incubation 48 h to 96 h. On the procedure: B-2. Determination of the Antiproliferative Effect on the HT29 Wt Cell Line:
A defined cell number of the human colon carcinoma cell line HT29 wt (wild type) was sown in a 96-well microtiter plate in complete medium (10% FCS-RPMI) (2500 cells/well) and incubated at 37° C./5% CO2 overnight. After 18 h, the sowing medium was replaced by fresh medium with 10% FCS. Treatment was initiated by addition of the respective test substance. From the substances to be investigated, dose/activity curves in a concentration range of from 10^−5 M to 10^−14 M (1:10-dilution series) were determined. The chosen incubation times were from 48 h to 96 h. Pro-liferation was determined with the aid of the MTT assays (ATCC, Manassas, Va., USA, catalogue No. 30-1010K). After the incubation time, the MTT reagent was incubated with the cells for 4 h, and the cells were subsequently lysed by adding the detergent overnight. The dye formed was detected at 570 nm. Proliferation of cells which had not been treated with test substance, but had otherwise been treated identically, was defined as 100%. The data obtained from this test are triple determinations, and at least two independent experiments were carried out.

Experiment [2] deals with human renal cancer cell line 786-0. Nature of the experiment: Antiproliferative effect on the 786-0 RCC cell line (MTT assay). Format: cell-based. The following applies: incubation 48 h to 96 h. On the procedure: B-1. Determination of the Antiproliferative Effect on the 786-0 RCC Cell Line:
A defined cell number of the human renal cancer cell line 786-0 was sown in a 96-well microtiter plate in complete medium (2500 or 7000 cells/well) and incubated at 37° C./5% CO2 overnight. After 18 h, the sowing medium was replaced by serum-free medium or medium with 2% FCS. Treatment was initiated by addition of the respective test substance in varying concentration (10^−5 M to […]). The chosen incubation times were from 48 h to 96 h. Proliferation was determined with the aid of the MTT assays (ATCC, Manassas, Va., USA, catalogue No. 30-1010K). After the incubation time, the MTT reagent was incubated with the cells for 4 h, and the cells were subsequently lysed by adding the detergent overnight. The dye formed was detected at 570 nm. […] The data obtained from this test are triple determinations, and at least two independent experiments were carried out.
(In general: Tetrazolium assays rely on reduction of a dye to a coloured formazan, in cell work by metabolically active cells.)

[3] abbreviates: Homo sapiens, HT-29, HT29 wt cells.
Setting [4] is: Homo sapiens, 786-0, 786-0 cells.

Counter-ions that a name gives are not always drawn. Non-standard residues stand in square brackets, D forms with d. Residues, ends and D or L forms follow the SMILES beside them. *: point of attachment. NMeVal(N-(CH2)3COOH) = CC(C)[C@@H](C(=O)*)N(C)CCCC(=O)O; Dolaproine = CO[C@@H]([C@@H]1CCCN1)[C@@H](C)C(=O)O; Dil = CC[C@H](C)[C@H](NC)[C@@H](CC(=O)O)OC; X7 = COC(=O)CCCN(C)[C@H](C(=O)*)C(C)C; X5 = CC(C)[C@@H](C(=O)*)N(C)CCO; Oxazinan2yl(1,2) = C1CCN(*)OC1; NMeV = CN[C@H](C(=O)O)C(C)C; X3 = c1ccc2c(c1)CON(*)C2; X6 = C1=CC2CCC1ON2*

A word on the IC50: it is the point on the concentration scale where inhibition reaches its midpoint. A low value points to greater potency.

In turn, `CC[C@H](C)[C@@H]([C@@H](CC(=O)N1CCC[C@H]1[C@H](OC)[C@@H](C)C(=O)N[C@@H](Cc1ccccc1)C(=O)N1CCCCO1)OC)N(C)C(=O)[C@@H](NC(=O)[C@H](C(C)C)N(C)CCO)C(C)C` [Example 2, N-(2-Hydroxyethyl)-N-methyl-L-valyl-N-[(3R,4S,5S)-3-methoxy-1-{(2S)-2-[(1R,2R)-1-methoxy-2-methyl-3-{[(2S)-1-(1,2-oxazinan-2-yl)-1-oxo-3-phenylpropan-2-yl]amino}-3-oxopropyl]pyrrolidin-1-yl}-5-methyl-1-oxoheptan-4-yl]-N-methyl-L-valinamide] (X5-V[Dil][Dolaproine]F-{Oxazinan2yl(1,2)}) showed an IC50 in experiment [1] (setting [3]) of 0.5 nM. Regarding `CC[C@H](C)[C@@H]([C@@H](CC(=O)N1CCC[C@H]1[C@H](OC)[C@@H](C)C(=O)N[C@@H](Cc1ccccc1)C(=O)N1OC2C=CC1CC2)OC)N(C)C(=O)[C@@H](NC(=O)[C@@H](NC)C(C)C)C(C)C` (stereo partly drawn) [Example 6, N-Methyl-L-valyl-N-[(3R,4S,5S)-3-methoxy-1-{(2S)-2-[(1R,2R)-1-methoxy-2-methyl-3-{[(2S)-1-(2-oxa-3-azabicyclo[2.2.2]oct-5-en-3-yl)-1-oxo-3-phenylpropan-2-yl]amino}-3-oxopropyl]pyrrolidin-1-yl}-5-methyl-1-oxoheptan-4-yl]-N-methyl-L-valinamide, trifluoroacetic acid salt] (H-[NMeV]V[Dil][Dolaproine]F-X6), the IC50 in experiment [2] (setting [4]) came to 0.5 nM. Same read-out and setting: the same measure for `CC[C@H](C)[C@@H]([C@@H](CC(=O)N1CCC[C@H]1[C@H](OC)[C@@H](C)C(=O)N[C@@H](Cc1ccccc1)C(=O)N1Cc2ccccc2CO1)OC)N(C)C(=O)[C@@H](NC(=O)[C@@H](NC)C(C)C)C(C)C` [Example 8, N-Methyl-L-valyl-N-[(3R,4S,5S)-1-{(2S)-2-[(1R,2R)-3-{[(2S)-1-(1,4-dihydro-3H-2,3-benzoxazin-3-yl)-1-oxo-3-phenylpropan-2-yl]amino}-1-methoxy-2-methyl-3-oxopropyl]pyrrolidin-1-yl}-3-methoxy-5-methyl-1-oxoheptan-4-yl]-N-methyl-L-valinamide, trifluoroacetic acid salt] (H-[NMeV]V[Dil][Dolaproine]F-X3): 2.4 nM. On to `CC[C@H](C)[C@@H]([C@@H](CC(=O)N1CCC[C@H]1[C@H](OC)[C@@H](C)C(=O)N[C@@H](Cc1c[nH]c2ccccc12)C(=O)N1CCCCO1)OC)N(C)C(=O)[C@@H](NC(=O)[C@@H](NC)C(C)C)C(C)C` [Example 9, N-Methyl-L-valyl-N-[(3R,4S,5S)-1-{(2S)-2-[(1R,2R)-3-{[(2S)-3-(1H-indol-3-yl)-1-(1,2-oxazinan-2-yl)-1-oxopropan-2-yl]amino}-1-methoxy-2-methyl-3-oxopropyl]pyrrolidin-1-yl}-3-methoxy-5-methyl-1-oxoheptan-4-yl]-N-methyl-L-valinamide, trifluoroacetic acid salt] (H-[NMeV]V[Dil][Dolaproine]W-{Oxazinan2yl(1,2)}), for which the half-maximal inhibitory concentration (IC50) in experiment [2] (setting [4]) came out at 3 nM; in experiment [1] (setting [3]), 1.4 nM.

As for `CC[C@H](C)[C@@H]([C@@H](CC(=O)N1CCC[C@H]1[C@H](OC)[C@@H](C)C(=O)N[C@@H](Cc1ccccc1)C(=O)N1CCCCO1)OC)N(C)C(=O)[C@@H](NC(=O)[C@H](C(C)C)N(C)CCCC(=O)O)C(C)C` [Example 24, N-(3-Carboxypropyl)-N-methyl-L-valyl-N-[(3R,4S,5S)-3-methoxy-1-{(2S)-2-[(1R,2R)-1-methoxy-2-methyl-3-{[(2S)-1-(1,2-oxazinan-2-yl)-1-oxo-3-phenylpropan-2-yl]amino}-3-oxopropyl]-pyrrolidin-1-yl}-5-methyl-1-oxoheptan-4-yl]-N-methyl-L-valinamide] ({NMeVal(N-(CH2)3COOH)}-V[Dil][Dolaproine]F-{Oxazinan2yl(1,2)}), the IC50 amounted to 5 nM in experiment [2] (setting [4]) and 1.5 nM in experiment [1] (setting [3]).

Compound `CC[C@H](C)[C@@H]([C@@H](CC(=O)N1CCC[C@H]1[C@H](OC)[C@@H](C)C(=O)N[C@@]1(C(=O)N2CCCCO2)C[C@@H]1c1ccccc1)OC)N(C)C(=O)[C@@H](NC(=O)[C@H](C(C)C)N(C)CCCCCC(=O)O)C(C)C` [Example 26, N-(5-Carboxypentyl)-N-methyl-L-valyl-N-[(3R,4S,5S)-3-methoxy-1-{(2S)-2-[(1R,2R)-1-methoxy-2-methyl-3-{[(1S,2R)-1-(1,2-oxazinan-2-ylcarbonyl)-2-phenylcyclopropyl]amino}-3-oxopropyl]-pyrrolidin-1-yl}-5-methyl-1-oxoheptan-4-yl]-N-methyl-L-valinamide] had a half-inhibitory concentration (IC50) in experiment [2] (setting [4]) of 18 nM. In the case of `CC[C@H](C)[C@@H]([C@@H](CC(=O)N1CCC[C@H]1[C@H](OC)[C@@H](C)C(=O)N[C@@H](Cc1ccccc1)C(=O)N1CCCCO1)OC)N(C)C(=O)[C@@H](NC(=O)[C@H](C(C)C)N(C)CCCC(=O)OC)C(C)C` [Example 29, N-(4-Methoxy-4-oxobutyl)-N-methyl-L-valyl-N-[(3R,4S,5S)-3-methoxy-1-{(2S)-2-[(1R,2R)-1-methoxy-2-methyl-3-{[(2S)-1-(1,2-oxazinan-2-yl)-1-oxo-3-phenylpropan-2-yl]amino}-3-oxopropyl]pyrrolidin-1-yl}-5-methyl-1-oxoheptan-4-yl]-N-methyl-L-valinamide] (X7-V[Dil][Dolaproine]F-{Oxazinan2yl(1,2)}), in experiment [1] (setting [3]), the IC50 was 0.1 nM. As to `CC[C@H](C)[C@@H]([C@@H](CC(=O)N1CCC[C@H]1[C@H](OC)[C@@H](C)C(=O)N[C@@H](Cc1ccccc1)C(=O)O)OC)N(C)C(=O)[C@@H](NC(=O)[C@@H](NC)C(C)C)C(C)C` [MMAF, Monomethylauristatin F, reference compound] (H-[NMeV]V[Dil][Dolaproine]F-OH), the IC50 turned out to be 260 nM in experiment [2] (786-0 cells) and 10 nM in experiment [1] (HT29 wt cells).
